Values quoted from earlier work, collected in patent US20230381158A1, “COMPOSITIONS FOR THE TREATMENT OF NON-ALCOHOLIC FATTY LIVER DISEASE AND NON-ALCOHOLIC STEATOHEPATITIS” (LUMOS PHARMA, INC., priority 2018, published 2023).
Counter-ions that a name gives are not always drawn. Ends that are not written are not given here.

Columns and labels:
GH/IGF-1 axis = settings: in vivo
[1] = FDA warning
Type 2 diabetic patients = Type 2 diabetic patients on metformin and/or a sulphonylurea agent, 12 week treatment
NAFLD patients = settings: 24 week study, 50 NAFLD patients, versus placebo
subjects = settings: 12 subjects treated for 24 weeks
adult NASH patients = settings: 1 year treatment, adult NASH patients refractory to dietary intervention
[2] = system: adults NASH without diabetes and cirrhosis; settings: 800 mg/day, versus placebo
[3] = five studies
NASH patients = settings: 300 mg/day for more than 2 years, Japan
[4] = long-term or high-dose use; several conflicting results exist
[5] = compared with the control group

CC(C)(N)C(=O)N[C@H](COCc1ccccc1)C(=O)N1CCC2(CC1)CN(S(C)(=O)=O)c1ccccc12 [ibutamoren, ibutamoren mesylate]
GH secretion (obese individuals): enhance GH secretion
lean body mass (obese individuals): increase lean body mass
serum IGF-1 (obese individuals): increase serum IGF-1
amplitude of pulsatile release of endogenous GH (GH/IGF-1 axis): enhances
glucose stimulated insulin secretion (pancreatic […]-cells): does not suppress

ghrelin (GSSFLSPEHQRVQQRKESKKPPAKLQPR; ends and bridges not checked; UniProt Q9UBU3 24-51, looked up) [hormone produced in the gastrointestinal tract that modulates GH]
insulin release from pancreatic […]-cells (pancreatic […]-cells): inhibits insulin release

CCc1ccc(CCOc2ccc(CC3SC(=O)NC3=O)cc2)nc1 (centres unmarked) [pioglitazone]
risk of bladder cancer [1]: may be linked to an increased risk of bladder cancer

N[C@@H](CC(=O)N1CCn2c(nnc2C(F)(F)F)C1)Cc1cc(F)c(F)cc1F [sitagliptin]
hepatic steatosis or fibrosis (Type 2 diabetic patients): neither treatment reduced hepatic steatosis or fibrosis
reducing liver fat (NAFLD patients): no better than placebo
fibrosis (subjects): no improvement

vitamin E
TGF-β1 (adult NASH patients): reduced
serum transaminase activities (adult NASH patients): reduced
improvements of NASH histology [2]: superior to placebo
hepatic steatosis [3, 5]: significantly reduced
hepatocellular ballooning [3, 5]: significantly reduced
inflammation [3, 5]: significantly reduced
serum hepatobiliary enzymes [3, 5]: significantly reduced
fibrosis improvement [3]: not confirmed
hepatic fibrosis (NASH patients): can ameliorate hepatic fibrosis
all-cause mortality, prostatic cancer, hemorrhagic stroke [4]: may increase
